Non-standard residues stand in square brackets, D forms with d. Residues, ends and D or L forms follow the SMILES beside them. Hyp = O=C(O)[C@@H]1C[C@@H](O)CN1; 2Thi = N[C@@H](Cc1cccs1)C(=O)O; Gly(N-cHex) = O=C(O)CNC1CCCCC1
How the values were obtained:
Type in all cases: cell-based
human B2R (Gαi2) = molecular target: T1, human B2R (Gαi2) (Homo sapiens, UniProt P30411); assay: BRET G protein coupling Gαi2-RLuc2/GFP10-Gγ1, B2R-transfected HEK293A cells; settings: HEK293-A; relative to maximum B2R-induced BRET response; mean ± SD, n = 4; ††p < 0.01 vs B2R(Ø); read-out: Emax, Gαi2/Gγ1 dissociation, B2R
T1 construct: expressed in transfected cells; host or cells: HEK293A
T1 sequence (P30411 1-391): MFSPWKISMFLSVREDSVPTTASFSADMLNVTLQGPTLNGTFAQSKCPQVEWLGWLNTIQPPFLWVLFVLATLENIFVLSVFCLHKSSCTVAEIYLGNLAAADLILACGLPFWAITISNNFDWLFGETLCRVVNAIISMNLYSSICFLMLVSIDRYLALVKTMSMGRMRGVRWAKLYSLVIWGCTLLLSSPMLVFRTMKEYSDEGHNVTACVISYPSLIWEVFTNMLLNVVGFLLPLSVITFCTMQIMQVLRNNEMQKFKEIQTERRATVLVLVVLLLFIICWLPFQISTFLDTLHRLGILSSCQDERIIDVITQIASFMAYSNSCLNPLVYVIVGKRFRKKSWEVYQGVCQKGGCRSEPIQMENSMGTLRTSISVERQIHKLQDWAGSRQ
Text: (§1) To test this hypothesis, we used live-cell bioluminescence resonance energy transfer (BRET) measurements to monitor the activation of G proteins by B2R. HEK293A cells were cotransfected with vectors coding for Gαq-RlucII or Gαi2/3-RlucII, Gβ, GFP10-Gγ1, and B2R or B2R^(Ø). In this experimental setting, the dissociation of Gαq-RlucII or Gαi2/3-RlucII from GFP10-Gγ1 results in a decrease of BRET signals. BRET data in Figure 6, A–C are presented relative to the maximum B2R-induced BRET response.
(§2) D, β-arrestin2 recruitment at the plasma membrane after stimulation with NG291 in HEK293A cells transfected with B2R and B2R^(Ø) by following BRET proximity of β-arr2-RLuc2 and rGFP-CAAX. […] Note.
(§3) BRET assays were performed as previously described ([56]). Briefly, HEK293A cells were grown in 96-well plates for 48 h after transient transfection with 10 μg BRET constructs (Gαq-RLuc2, Gβ1, and GFP10-Gγ1) (Gαi2-Rluc2, Gβ1, and GFP10-Gγ1) (Gαi3-Rluc2, Gβ1, and GFP10-Gγ1) (β-arrestin2-Rluc2 and rGFP-CAAX) and B2R or B2R^(Ø). Cells were washed twice with stimulation buffer (10 mM HEPES pH 7.4, 1 mM CaCl2, 0.5 mM MgCl2, 4.2 mM KCl, 146 mM NaCl, 5.5 mM glucose) and incubated for 1 h in 80 μl stimulation buffer at room temperature. […] BRET readings were collected in the […] (Rluc2) and […] (GFP10) windows, and BRET signal was calculated as a ratio of GFP10 on Rluc2. […]

human B2R (Gαi3) = molecular target: T2, human B2R (Gαi3) (Homo sapiens, UniProt P30411); assay: BRET G protein coupling Gαi3-RLuc2/GFP10-Gγ1, B2R-transfected HEK293A cells; settings: HEK293-A; relative to maximum B2R-induced BRET response; mean ± SD, n = 4; †p < 0.05 vs B2R(Ø); read-out: Emax, Gαi3/Gγ1 dissociation, B2R
T2 construct: expressed in transfected cells; host or cells: HEK293A
T2 sequence (P30411 1-391): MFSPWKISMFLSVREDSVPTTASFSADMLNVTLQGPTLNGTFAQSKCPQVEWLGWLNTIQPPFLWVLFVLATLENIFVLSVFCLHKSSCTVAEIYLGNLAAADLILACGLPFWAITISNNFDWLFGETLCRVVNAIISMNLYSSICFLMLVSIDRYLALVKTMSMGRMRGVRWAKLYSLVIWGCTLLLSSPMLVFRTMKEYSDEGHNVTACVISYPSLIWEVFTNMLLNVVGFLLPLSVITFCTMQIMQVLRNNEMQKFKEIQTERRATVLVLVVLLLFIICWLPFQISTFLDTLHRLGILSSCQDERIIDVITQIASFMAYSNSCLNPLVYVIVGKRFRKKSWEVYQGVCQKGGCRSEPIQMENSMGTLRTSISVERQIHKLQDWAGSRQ
Text: as §1, §2, §3

[1] = molecular target: T3, mutant human B2R(Ø) lacking AltB2R expression (Homo sapiens, UniProt P30411); assay: Inositol phosphate (IP1) production, IP-One Gq assay (FRET), B2R(Ø)-transfected HEK293A cells (lacking AltB2R)
T3 construct: expressed in transfected cells; host or cells: HEK293A
T3 sequence (P30411 1-391): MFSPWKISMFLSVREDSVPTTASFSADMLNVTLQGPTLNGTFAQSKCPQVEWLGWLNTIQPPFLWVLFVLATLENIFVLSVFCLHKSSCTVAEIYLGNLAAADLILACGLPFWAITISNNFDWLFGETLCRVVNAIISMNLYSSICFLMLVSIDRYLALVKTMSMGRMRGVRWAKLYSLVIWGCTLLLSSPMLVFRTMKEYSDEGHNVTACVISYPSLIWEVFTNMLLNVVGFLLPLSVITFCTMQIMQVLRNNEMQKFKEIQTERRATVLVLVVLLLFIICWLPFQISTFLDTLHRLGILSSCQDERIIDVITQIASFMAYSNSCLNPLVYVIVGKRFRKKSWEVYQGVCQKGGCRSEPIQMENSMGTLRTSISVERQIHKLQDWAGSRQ
Procedure: This construct is a monocistronic version of B2R with the mutation C168T. In this mutant, a premature stop codon is introduced in the AltB2R coding sequence (Q11stop) in a manner synonymous for B2R (L56 L). Thus, the B2R encodes B2R and AltB2R, whereas mutant B2R^(Ø) encodes only B2R.
To consolidate the western blot data, AlphaLISA assays were also conducted in parallel in the same cell lines for the quantitative analyses of B2R-stimulated ERK1/2 phosphorylation (Fig. 5, B and C).
Quantitative densitometry analysis of pERK1/2 levels over time (top right). pERK/total ERK ratios were calculated for each time point.
HeLa, HEK293T, and HEK293A cells were maintained in Dulbecco's modified Eagle's medium (DMEM) containing 10% fetal bovine serum (FBS) (Wisent, #080-450) and 1% antibiotic-antimycotic (Wisent, #450-115-EL) under standard conditions. HEK293A cells were transiently transfected with the pcDNA3.1-vector containing the cDNA of human B2R or B2R^(Ø), using polyethylenimine (PEI) or JetPrime (Polyplus). HeLa cells were transiently transfected with B2R and AltB2R constructs using GeneCellin (Bulldog Bio Inc) or JetPrime (Polyplus) transfection reagent, as per the manufacturer’s instructions, and incubated 24 h at 37 °C, unless otherwise stated.
Inositol monophosphate (IP1) production was determined using the IP-One Gq assay kits (Cisbio, #62IPAPEB), according to the manufacturer's instructions. Fluorescence resonance energy transfer (FRET) signals were measured with a Tecan M1000 plate reader.

[2] = molecular target: T4, mutant human B2R(Ø) lacking AltB2R expression (Gαi3) (Homo sapiens, UniProt P30411); assay: BRET G protein coupling Gαi3-RLuc2/GFP10-Gγ1, B2R(Ø)-transfected HEK293A cells; settings: HEK293-A; relative to maximum B2R-induced BRET response; mean ± SD, n = 4; read-out: Emax, Gαi3/Gγ1 dissociation, B2R(Ø)
T4 construct: expressed in transfected cells; host or cells: HEK293A
T4 sequence (P30411 1-391): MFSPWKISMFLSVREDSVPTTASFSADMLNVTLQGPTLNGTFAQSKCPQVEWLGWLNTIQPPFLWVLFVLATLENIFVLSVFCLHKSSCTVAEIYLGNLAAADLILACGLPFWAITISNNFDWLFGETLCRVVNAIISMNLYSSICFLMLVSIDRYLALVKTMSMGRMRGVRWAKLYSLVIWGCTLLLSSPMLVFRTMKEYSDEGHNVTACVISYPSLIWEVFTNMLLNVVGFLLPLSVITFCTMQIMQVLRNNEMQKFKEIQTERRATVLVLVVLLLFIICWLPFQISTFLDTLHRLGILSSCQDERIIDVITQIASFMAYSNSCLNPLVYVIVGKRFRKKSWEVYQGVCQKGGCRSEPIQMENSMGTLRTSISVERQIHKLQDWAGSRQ
Text: as §1, §2, §3

[3] = molecular target: T5, mutant human B2R(Ø) lacking AltB2R expression (Gαq) (Homo sapiens, UniProt P30411); assay: BRET G protein coupling Gαq-RLuc2/GFP10-Gγ1, B2R(Ø)-transfected HEK293A cells; settings: HEK293-A; relative to maximum B2R-induced BRET response; mean ± SD, n = 3; read-out: Emax, Gαq/Gγ1 dissociation, B2R(Ø)
T5 construct: expressed in transfected cells; host or cells: HEK293A
T5 sequence (P30411 1-391): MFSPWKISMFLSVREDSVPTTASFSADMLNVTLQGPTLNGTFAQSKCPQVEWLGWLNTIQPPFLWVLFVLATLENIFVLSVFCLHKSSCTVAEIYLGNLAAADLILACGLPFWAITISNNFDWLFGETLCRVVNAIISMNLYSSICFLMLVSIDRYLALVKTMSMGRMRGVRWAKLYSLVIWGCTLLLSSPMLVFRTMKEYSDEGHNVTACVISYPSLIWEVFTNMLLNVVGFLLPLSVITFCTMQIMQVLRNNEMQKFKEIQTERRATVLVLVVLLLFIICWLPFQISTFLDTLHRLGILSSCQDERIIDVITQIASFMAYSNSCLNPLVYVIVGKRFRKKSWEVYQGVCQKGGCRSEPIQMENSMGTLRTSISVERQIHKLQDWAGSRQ
Text: as §1, §2, §3

[4] = molecular target: T6, mutant human B2R(Ø) lacking AltB2R expression (Gαi2) (Homo sapiens, UniProt P30411); assay: BRET G protein coupling Gαi2-RLuc2/GFP10-Gγ1, B2R(Ø)-transfected HEK293A cells; settings: HEK293-A; relative to maximum B2R-induced BRET response; mean ± SD, n = 4; read-out: Emax, Gαi2/Gγ1 dissociation, B2R(Ø)
T6 construct: expressed in transfected cells; host or cells: HEK293A
T6 sequence (P30411 1-391): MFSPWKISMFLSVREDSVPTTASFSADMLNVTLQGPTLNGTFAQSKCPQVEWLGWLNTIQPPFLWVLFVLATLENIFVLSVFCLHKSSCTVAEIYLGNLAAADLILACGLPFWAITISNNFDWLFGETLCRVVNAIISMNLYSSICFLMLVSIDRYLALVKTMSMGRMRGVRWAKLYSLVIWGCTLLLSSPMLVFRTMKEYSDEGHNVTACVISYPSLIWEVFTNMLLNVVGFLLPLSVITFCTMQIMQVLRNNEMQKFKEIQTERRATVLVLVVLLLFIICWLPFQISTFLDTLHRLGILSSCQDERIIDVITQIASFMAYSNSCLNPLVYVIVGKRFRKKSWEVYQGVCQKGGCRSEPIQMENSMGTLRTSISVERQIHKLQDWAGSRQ
Text: as §1, §2, §3

N=C(N)NCCC[C@H](NC(=O)[C@H](Cc1cccs1)NC(=O)CN(C(=O)[C@H](CO)NC(=O)[C@H](Cc1cccs1)NC(=O)CNC(=O)[C@@H]1C[C@@H](O)CN1C(=O)[C@@H]1CCCN1C(=O)[C@@H](N)CCCNC(=N)N)C1CCCCC1)C(=O)O [NG291, [Hyp^3,Thi^5,^NChg^7,Thi^8]-BK] (H-RP[Hyp]G[2Thi]S[Gly(N-cHex)][2Thi]R-OH; N-terminus and C-terminus assumed)
Emax (human B2R (Gαi2)): 100 ± 11%
Emax (human B2R (Gαi3)): 100 ± 21%
Emax ([1]; HEK293-A, Emax in B2R(Ø) versus B2R cells, read-out: reduction of efficacy (Emax) for IP1 formation in cells without AltB2R expression): 22%
potency (EC50) for IP1 formation, B2R- versus B2R(Ø)-transfected cells ([1]; comparison of EC50 between B2R and B2R(Ø), unpaired t-test): no significant difference in potencies (EC50 values)
Emax [2]: 60 ± 22%
Emax [3]: 74 ± 8%
Emax [4]: 66 ± 12%

Source: article PMC7949122 (The Journal of Biological Chemistry, 2021)
